Data on ten compounds can be found in EP3572468B1, “CYANINE DYES AND THEIR USAGE FOR IN VIVO STAINING OF MICROORGANISMS” (PHILIPPS-UNIVERSITÄT MARBURG, priority 2018, dated 2019).

Data set [1] in a line: Molar extinction coefficient determination. It is filed as physicochemical. Here is the method:
The concentration determination and measurement of full UV-Vis spectra were performed on a Tecan 20M at room temperature. The measurements were performed in a 1400 µL quarz cuvette with a pathlength of 1 cm in a volume of 1 mL.
For the accurate determination of our compounds 6-TramTO-3 the extinction coefficient was calculated. A specific amount (< 2.00 mg) of the compound was weighted on a Mettler Toledo XP6 and dissolved in a known amount of milli-Q water. Increasing amounts of such stock solution were added into a 1 mL cuvette filled with 1 ml of milli-Q water. The corresponding absorbance of each addition was measured on a Tecan Spark 20M at the maximum at 625 nm and without exceeding 10% of the initial volume. In all the cases the absorbance was between 0.1 and 1 AU. to be in concordance with Lambert-Beer law (equation E2). A = ε l c [formula]
In this equation (E2): A = absorbance of the solution; I = length of the cuvette; c = concentration; ε = molar extinction coefficient.
The lineal regression of the obtained absorbance measurements versus the concentrations of 6-TramTO-3 allowed us to obtain the molar extinction coefficient. These measurements were repeated three times independently i.e. from three different stock solutions. The mean extinction coefficient and the standard deviation of 6-TramTO-3 at a wavelength of 625 nm in milli-Q water was 59403 ±646 M^-1cm^-1.
The mean extinction coefficient and the standard deviation of 6-NH2TO-3 and 6-AzTO-3 were determined following the above described procedure. The extinction coefficient of 6-NH2TO-3 was determined in milli-Q water, whereas the extinction coefficient of 6-AzTO-3 was determined in DMSO due to its low aqueous solubility. […] For the spectrum of 6-AzTO-3 1% of DMSO was added for a better solubility. Fig. 20 and Fig. 21 show the linear regressions from the three independent measurements. Table 4 summarized the molar extinction coefficient obtained. Table 4: Determined mean extinction coefficients and standard deviations of 6-AzTO-3 in DMSO and 6-TramTO-3 and 6-NH2TO-3 in milli-Q water.

Data set [2] is described as follows: Aqueous solubility (remark). In kind it is physicochemical. To be noted: reason why the extinction coefficient was determined in DMSO.
For data set [3] the following is noted: Atto 655 in PBS pH 7.4; Alexa Fluor 647 in 50 mM potassium phosphate pH 7.2 and 150 mM NaCl; cited from earlier work.
Data set [4] can be described thus: Fluorescence quantum yield, dye alone. In kind it is physicochemical. The following applies: reference compounds determined against each other; Atto 655 in PBS pH 7.4, Alexa Fluor 647 in 50 mM potassium phosphate pH 7.2 and 150 mM NaCl. Here is the method: Fluorescence intensity values for the quantum yields were determined on an ISS PC1 spectrofluorometer with an ISS 11650 lamp connected to an ISS Simpson model 109 and an ISS 80011 photomulitplier connected to a MGW Lauda K2R D and an Amherst Scientific Corp. 7600F for cooling. A VWR Refrigerated Circ 1160S was connected for the cooling of the cuvette chamber. It was measured in a 1400 µL fluorescence cuvette of HellmaAnalytics (104F-QS) at 25°C using the following settings: increment: 2.0 nm; integration time: 1.0 s; excitation slit width: 0.25 mm; emission slit width: 0.5 mm; excitation wavelength 590 nm. The emission spectra were recorded from 610 to 750 nm. From all spectra the corresponding background signal was substracted. Absorbance values were measured on a Jasco V-650 UV-Vis Spectrophotometer equipped with a Jasco PAC-743 temperature controlled cell holder and a Julabo F250 cooling system. UV-Vis titration measurements were performed in a 1400 µL quarz cuvette with a pathlength of 1 cm at 25°C using the following settings: increment: 1.0 nm; bandwidth: 1.0 nm; scanning speed: 1000 nm/min; scanning mode: continuous. From all values, the corresponding background signal was subtracted. The values for the reference compounds were measured in duplicates, the ones for 6-TramTO-3 with and without dsDNACT in triplicates. The quantum yields of 6-TramTO-3 with (30 eq.) and without dsDNACT were determined in 10 mM Tris pH 7.6 and 50 mM KCI. All measurement were following the procedure of Horiba and using the equation E1: ΦX = ΦST ((GradX)/(GradST)) ((((ηX))^2)/(((ηST))^2)) [formula] where Φ = fluorescence quantum yield, η = refractive index of the used solvent, Grad = gradient from the plot of integrated fluorescence intensity vs. absorbance and the subscripts ST and X denote standard and tested sample. […]
Table 3: Determined slopes and corresponding quantum yields for the two reference compounds Alexa Flour® 647 and Atto 655 and for 6-TramTO-3 with and without dsDNACT.

For the next data set, the target named is dsDNACT. The following applies: previously obtained results for DNA intercalators with the same DNA (dsDNACT); cited from earlier work.
Data set [5] concerns antibiotic-sensitive K. pneumoniae. Nature of the data set: Resistance to standard antibiotics, bacterial dilutions spotted onto solid medium. In kind it is cell-based, Klebsiella pneumoniae. The following applies: the other (antibiotic-sensitive) K. pneumoniae strain; dilutions spotted onto LB solid medium supplemented with antibiotic, outgrowth 48 h. As to the method: (§1) Escherichia coli (E. coli) NEB5α (New England Biolabs) and antibiotic-resistant and -sensitive Klebsiella pneumoniae (K. pneumoniae) were cultured in Luria-Bertani (LB) solid medium (LB-Agar) overnight at 37°C. The source of the K. pneumoniae strands is of no relevance to the invention. The invention may be applied to all types of microorganisms (bacteria, viri, fungi etc.) or other cells, either contained within a sample or isolated from a sample. For staining, growth curve analysis and replating experiments bacteria were suspended in LB liquid medium at an OD600 nm of 1.0 and 800 µL were transferred into a culture tube containing 7.2 mL of LB liquid medium supplemented with DMSO or candidate dyes (2.5 µM) final concentration). Density of bacterial cultures was measured using an Ultrospec 10 Cell Density Meter with 600 nm LED source (Amersham Biosciences). For bacterial re-plating experiments bacteria were sampled at OD600 nm = 2.0 and 5 µL of indicated dilutions in LB-medium were spotted onto LB-agar plates (Fig. 5) or 100 µL were plated onto LB-agar plates followed by incubation at 37°C until colonies became visible.

For data set [6], the system named is multiresistant K. pneumoniae. The description is as above. It is filed as cell-based, Klebsiella pneumoniae. The following applies: dilutions spotted onto LB solid medium supplemented with antibiotic, outgrowth 48 h. As to the method: as §1
The test system of the next data set is E. coli. The description is as above. In kind it is cell-based, Escherichia coli. The following applies: dilutions spotted onto LB solid medium supplemented with antibiotic, outgrowth 48 h. Here is the method: as §1
Data set [7] deals with Escherichia coli (E. coli) NEB5α. In words: Bacteria culture and staining: growth and FACS labeling of E. coli. In kind it is cell-based. The following applies: for bacterial growth in presence of dye: 2.5 µM dye in LB medium, OD600 over time, liquid and solid medium; for fluorescent labeling of live bacteria (FACS): 2.5 µM dye in culture medium, FACS at mid-exponential growth phase (OD600 = 2.0). As to the method: as §1
Bacteria and macrophages were washed with PBS prior to flow cytometry and analysed using a Guava easyCyte flow cytometer (Millipore). FCS3.0 files were analysed using Flowing Software (http://flowingsoftware.btk.fi/). Cells were first gated in the forward- / side-scatter plot to exclude debries, followed by quadrant gating in plots using the fluorescence channels as shown above. For discrimination of live/dead cell discrimination cells in PBS were supplemented with 0.4 µL/mL propidium-iodide (5 mg/ml solution) followed by 5 min incubation on ice. Propidium iodide signal was recorded in the yellow channel.

The test system of a further data set is bacteria. The following applies: in vivo labeling of bacteria for macrophage uptake assays; indicative of toxicity; cited from earlier work.

pKd: −log10 of the molar value.

Take `CC[n+]1ccc(/C=C/C=C2\Sc3ccccc3N2CCCCCCN=[N+]=[N-])c2ccccc21.[I-]` [6-AzTO-3, 4-((1E,3Z)-3-(3-(6-azidohexyl)benzo[d]thiazol-2(3H)-ylidene)prop-1-en-1-yl)-1-ethylquinolin-1-ium iodide]: in data set [1] (in DMSO, absorbance maximum at 639 nm), the mean extinction coefficient turned out to be 110203 ± 1577 M⁻¹ cm⁻¹. For the same compound, the aqueous solubility entry in [2] is “low”.
With `CC[n+]1ccc(/C=C/C=C2\Sc3ccccc3N2CCCCCCN)c2ccccc21.O=C([O-])C(F)(F)F` [6-NH2TO-3, mono(4-((1E,3Z)-3-(3-(6-ammoniohexyl)benzo[d]thiazol-2(3H)-ylidene)prop-1-enyl)-1-ethylquinolinium) mono(2,2,2-trifluoroacetate)], the mean extinction coefficient in data set [1] (in milli-Q water, absorbance maximum at 625 nm) is 90043 ± 418 M⁻¹ cm⁻¹.
Regarding `CC[N+]1=c2cc3c(cc2CCC1)=Nc1cc2c(cc1O3)N(CCCC(=O)ON1C(=O)CCC1=O)C(C)(C)CC2CS(=O)(=O)[O-]` (centres unmarked) [Atto 655, reference compound], in data set [3], the “quantum yield (lit.)” value is on record as 0.30. In addition, the quantum yield in data set [4] worked out at 0.31.
As to `CN(C)c1ccc2cc3ccc(N(C)C)cc3nc2c1` [acridine orange], the pKd on dsDNACT was 4.44.
As to `CC1(C)S[C@@H]2[C@H](NC(=O)[C@H](N)c3ccccc3)C(=O)N2[C@H]1C(=O)O` [ampicillin], the sensitivity to antibiotic result in data set [5] was “sensitive”; in data set [6], “insensitive”; in the data set with E. coli, “sensitive”.
Consider `O=C(N[C@H](CO)[C@H](O)c1ccc([N+](=O)[O-])cc1)C(Cl)Cl` [chloramphenicol], for which the sensitivity to antibiotic result in data set [5] is listed as “sensitive”; in data set [6] it was “insensitive”; in the data set with E. coli it was “sensitive”.
Consider `CN(C)c1ccc2nc3ccc(=[N+](C)C)cc-3sc2c1` [methylene blue], for which the pKd at dsDNACT was 4.34.
For the compound Alexa Fluor^® 647 [reference compound], in data set [3], the “quantum yield (lit.)” value is on record as 0.33. The compound further came in with a quantum yield in data set [4] of 0.32.
As for SyTO-9^™, in data set [7], the “bacterial growth in presence of dye” value is reported as “delayed bacterial growth substantially” and the “fluorescent labeling of live bacteria (FACS)” value is reported as “efficient green-fluorescent labeling”. For the same compound, in the data set with bacteria, the “colony formation of the stained bacteria” value is “reduced colony formation”.
On to “carboxyfluorescein succinimidyl ester [CFSE]”, for which, in [7], the “bacterial growth in presence of dye” value is listed as “compatible with bacterial growth” and the “fluorescent labeling of live bacteria (FACS)” value is “hardly labeled bacteria”.

The pKd is the negative decadic logarithm of the Kd, by convention in mol/L.
